Two molecules from ChEMBL document CHEMBL1152013, “()-Phenylahistin: A new mammalian cell cycle inhibitor produced by aspergillus ustus” (Bioorg Med Chem Lett, 1997) can be followed below.

In the experiment the test system is P388. The experiment can be described thus: Inhibitory concentration required for cytotoxic effect against P388 murine leukemia cells. It counts as functional, cell-based. To be noted: Mus musculus.

What is called IC50 is the concentration needed to halve the response being measured. Higher therefore signals lower potency.

In turn, `C=CC(C)(C)c1[nH]cnc1/C=C1\NC(=O)[C@H](Cc2ccccc2)NC1=O` came in with an IC50 of 0.35 µM.

As for `C=CC(C)(C)c1[nH]cnc1/C=C1\NC(=O)[C@@H](Cc2ccccc2)NC1=O`, the IC50 was 38 µM.
